What is called IC50 is the concentration at which inhibition is half-maximal. A low value points to greater potency in that assay.

Series [1] addresses T1, binding between NRF2 and KEAP1 (Homo sapiens, UniProt Q14145).
T1 construct: expressed in transfected cells; host or cells: HCE-T cells; each protein was expressed separately, and the two cell lysates were mixed in the well
The series is described as follows: Measurement 1 of Nrf2 activating action (binding assay): BRET assay of inhibition of the binding between NRF2 and KEAP1. The following applies: 50% binding inhibitory concentration, NanoLuc-NRF2 / KEAP1-HaloTag cell lysates. On the procedure: Compounds 1 to 53 produced in the Examples were used as test substances.
The inhibitory activity of each compound on the binding between NRF2 and KEAP1 was measured by bioluminescence resonance energy transfer (BRET) assay. A plasmid having human NRF2 (Original Clone ID: ha01449s1) sequence fused with NanoLuc (19 kDa, Promega) at the N-terminal was transduced into HCE-T cells using FuGENE HD (Promega). 48 hours after transduction, the cell lysate was collected and used as an NRF2-expressing cell lysate. A plasmid having human KEAP1 (Original Clone ID: cs00328) sequence fused with HaloTag (33 kDa, Promega) at the C-terminal was transduced into HCE-T cells using FuGENE HD (Promega). After 24 hours, HaloTag Nano BRET 618 Ligand (Promega) was added to the medium. The cell lysate cultured for 24 hours after the addition was used as a KEAP1-expressing cell lysate.
The NRF2-expressing cell lysate and the KEAP1-expressing cell lysate were adjusted so that the luminescence and fluorescence intensities per well were constant. Tables 1 and 2 show the formulation of each reaction solution.
Each test substance at a concentration 100 times higher than the test concentration was dissolved in dimethylsulfoxide for adjustment. 49 μL of KEAP1 solution was added to a 96-well polystyrene microplate (FALCON) to which 1 μL of each test substance solution was added, followed by incubation for 15 minutes. Then, 50 μL of NRF2 solution was added to the above solution, followed by incubation for 1 hour. To measure the binding between NRF2 and KEAP1, NanoBRET Nano-Glo Substrate (Promega) diluted with Opti-Mem (Thermo Fisher Scientific) was added, followed by shaking for 30 seconds. Then, luminescence and fluorescence were measured using the GloMax Discover System (Promega). A 495-nm short pass filter and a 600-nm long pass filter were respectively used to measure donor and acceptor emission values. A value obtained by dividing the acceptor emission value by the donor emission value was regarded as BRET value. A BRET value when the compound was not added, and a BRET value when the KEAP1 solution was not added were respectively used as binding rates of 100% and 0%, and the binding rate when the compound was added was calculated. Further, using this binding rate, the 50% binding inhibitory activity concentration (IC50) was calculated from the following formula: IC50(M)=10^(LOG(A/B)×(50−C)/(D−C)+LOG(B)) • A: higher concentration out of 2 close concentrations across the inhibition rate of 50% • B: lower concentration out of 2 close concentrations across the inhibition rate of 50% • C: inhibition rate at B • D: inhibition rate at A
On the technique in general: In BRET a luciferase serves as donor, and the signal depends on an acceptor being close.

Series [2] can be described thus: Measurement of metabolic stability in human liver microsomes. Type of series: in vitro ADME. The following applies: residual ratio of test compound after 30 minutes at 37° C. with human liver microsome, LC/MS/MS. On the procedure: 1 mmol/L DMSO solutions of the compounds produced in the Examples were prepared. Each of the 1 mmol/L DMSO solutions was diluted with acetonitrile to 10 μmol/L, and then diluted with a 6.5 mmol/L Q-NADPH solution to 200 nmol/L. 50 μL of each solution was added to the reaction group and the non-reaction group. 50 μL of a 0.2 mg protein/mL human liver microsome (Mixed Gender, Pool of 50 livers; XenoTech, LLC) solution was added to the reaction group, followed by incubation at 37° C. for 30 minutes with shaking. After 400 μL of methanol was added to the non-reaction group, 50 μL of a 0.2 mg protein/mL human liver microsome solution was added to adjust the formulation. After incubation in the reaction group, 400 μL of methanol was added to stop the reaction. The samples of the reaction group and non-reaction group were allowed to stand at −20° C. for about 30 minutes, followed by centrifugation at 4° C. at 3000 rpm for about 10 minutes. The supernatant was analyzed using LC/MS/MS, and the residual ratio of the test compound was calculated from the peak area value of the test compound using the following formula. The measurement was carried out using the following devices: HPLC system: LC-20A-Series High Performance Liquid Chromatograph (Shimadzu Corporation) and mass spectrometer: API 4000 (AB Sciex Pte. Ltd.), or using equivalent devices. Residual ratio (%)=(peak area value of test compound in reaction group/peak area value of test compound in non-reaction group)×100 Results
(In general: Liver microsomes are a subcellular fraction often used to study metabolism.)

T1 sequence (Q14145 whole entry): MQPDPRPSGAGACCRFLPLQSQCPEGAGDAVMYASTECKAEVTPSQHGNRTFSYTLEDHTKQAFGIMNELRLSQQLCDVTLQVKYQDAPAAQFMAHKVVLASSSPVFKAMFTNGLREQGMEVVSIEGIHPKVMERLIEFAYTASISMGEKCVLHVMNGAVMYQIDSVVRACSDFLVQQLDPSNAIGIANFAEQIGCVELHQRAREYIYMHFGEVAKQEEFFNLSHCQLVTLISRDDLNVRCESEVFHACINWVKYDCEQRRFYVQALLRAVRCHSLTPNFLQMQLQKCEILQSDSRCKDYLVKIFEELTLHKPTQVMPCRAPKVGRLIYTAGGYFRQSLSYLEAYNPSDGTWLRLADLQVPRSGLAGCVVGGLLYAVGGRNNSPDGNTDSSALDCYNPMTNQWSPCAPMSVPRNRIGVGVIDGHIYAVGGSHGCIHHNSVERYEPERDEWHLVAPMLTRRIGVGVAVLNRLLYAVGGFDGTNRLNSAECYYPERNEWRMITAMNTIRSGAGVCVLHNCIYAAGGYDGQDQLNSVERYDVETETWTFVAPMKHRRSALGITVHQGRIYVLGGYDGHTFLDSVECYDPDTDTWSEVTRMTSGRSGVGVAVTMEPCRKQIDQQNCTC

As for `CC[C@@H]1CN(Cc2cc(C(CC(=O)O)c3c(C)c(C(C)=O)c(C)n3C)ccc2C)S(=O)(=O)c2ccccc2O1` (stereo partly drawn) [Compound 35, 3-(4-acetyl-1,3,5-trimethyl-1H-pyrrol-2-yl)-3-(3-{[(R)-4-ethyl-1,1-dioxide-3,4-dihydro-2H-benzo[b][1,4,5]oxathiazepin-2-yl]methyl}-4-methylphenyl) propanoic acid], the IC50 in series [1] stood at 3.9 nM. The “Metabolic stability*” value in series [2] amounted to 39%.

`CC[C@@H]1CN(Cc2cc(C(CC(=O)O)c3ccc(C(=O)C4CC4)s3)ccc2C)S(=O)(=O)c2ccccc2O1` (stereo partly drawn) [Compound 20, 3-[5-(cyclopropanecarbonyl)thiophen-2-yl]-3-(3-{[(R)-4-ethyl-1,1-dioxide-3,4-dihydro-2H-benzo[b][1,4,5]oxathiazepin-2-yl]methyl}-4-methylphenyl)propanoic acid] showed an IC50 in series [1] of 24 nM. Moreover, the “Metabolic stability*” value in series [2] is listed as 7%.

In the case of `CC[C@@H]1CN(Cc2cc(C(c3ccc(C(C)=O)o3)C(C)C(=O)O)ccc2C)S(=O)(=O)c2ccccc2O1` (stereo partly drawn) [Compound 24, 3-(5-acetylfuran-2-yl)-3-(3-{[(R)-4-ethyl-1,1-dioxide-3,4-dihydro-2H-benzo[b][1,4,5]oxathiazepin-2-yl]methyl}-4-methylphenyl)-2-methylpropanoic acid], the 50% inhibitory concentration (IC50) in series [1] was 0.83 nM. In addition, the “Metabolic stability*” value in series [2] came to 72%.

For `CC[C@@H]1CN(Cc2cc(C(CC(=O)O)c3cc4c(s3)C(=O)NC4)ccc2C)S(=O)(=O)c2ccccc2O1` (stereo partly drawn) [Compound 38, 3-(3-{[(R)-4-ethyl-1,1-dioxide-3,4-dihydro-2H-benzo[b][1,4,5]oxathiazepin-2-yl]methyl}-4-methylphenyl)-3-(6-oxo-5,6-dihydro-4H-thieno[2,3-c]pyrrol-2-yl) propanoic acid], the IC50 in series [1] was 0.22 nM. Also, in series [2], the “Metabolic stability*” value came out at 61%.

In series [1], `CC[C@@H]1CN(Cc2cc(C(CC(=O)O)c3ccc(S(N)(=O)=O)s3)ccc2C)S(=O)(=O)c2ccccc2O1` (stereo partly drawn) [Compound 18, 3-(3-{[(R)-4-ethyl-1,1-dioxide-3,4-dihydro-2H-benzo[b][1,4,5]oxathiazepin-2-yl]methyl}-4-methylphenyl)-3-(5-sulfamoylthiophen-2-yl)propanoic acid] registered an IC50 of 35 nM. For the same compound, in series [2], the “Metabolic stability*” value came out at 40%.

For the compound `CC[C@@H]1CN(Cc2cc(C(CC(=O)O)c3cc4c(n3C)CCCC4=O)ccc2C)S(=O)(=O)c2ccccc2O1` (stereo partly drawn) [Compound 37, 3-(3-{[(R)-4-ethyl-1,1-dioxide-3,4-dihydro-2H-benzo[b][1,4,5]oxathiazepin-2-yl]methyl}-4-methylphenyl)-3-(1-methyl-4-oxo-4,5,6,7-tetrahydro-1H-indol-2-yl)propanoic acid], the IC50 in series [1] turned out to be 0.16 nM. The “Metabolic stability*” value in series [2] was found to be 89%.

Compound `CC[C@@H]1CN(Cc2cc(C(CC(=O)O)c3cncs3)ccc2C)S(=O)(=O)c2ccccc2O1` (stereo partly drawn) [Compound 39, 3-(3-{[(R)-4-ethyl-1,1-dioxide-3,4-dihydro-2H-benzo[b][1,4,5]oxathiazepin-2-yl]methyl}-4-methylphenyl)-3-(thiazol-5-yl)propanoic acid] came in with an IC50 in series [1] of 3.8 nM. Moreover, the “Metabolic stability*” value in series [2] came to 89%.

On to `CC[C@@H]1CN(Cc2cc(C(CC(=O)O)c3ccc(C(C)=O)o3)ccc2C)S(=O)(=O)c2ccccc2O1` (stereo partly drawn) [Compound 25, 3-(5-acetylfuran-2-yl)-3-(3-{[(R)-4-ethyl-1,1-dioxide-3,4-dihydro-2H-benzo[b][1,4,5]oxathiazepin-2-yl]methyl}-4-methylphenyl)propanoic acid], for which the IC50 in series [1] is 3.8 nM. Also, the “Metabolic stability*” value in series [2] is 72%.

For `CC[C@@H]1CN(Cc2cc(C(CC(=O)O)c3ccc(C(=O)NCCOC)o3)ccc2C)S(=O)(=O)c2ccccc2O1` (stereo partly drawn) [Compound 30, 3-(3-{[(R)-4-ethyl-1,1-dioxide-3,4-dihydro-2H-benzo[b][1,4,5]oxathiazepin-2-yl]methyl}-4-methylphenyl)-3-{5-[(2-methoxyethyl)carbamoyl]furan-2-yl}propanoic acid], the IC50 in series [1] worked out at 14 nM. Also, the “Metabolic stability*” value in series [2] was found to be 81%.

`CC[C@@H]1CN(Cc2cc(C(CC(=O)O)c3ccc(CNC(C)C)o3)ccc2C)S(=O)(=O)c2ccccc2O1` (stereo partly drawn) [Compound 32, 3-(3-{[(R)-4-ethyl-1,1-dioxide-3,4-dihydro-2H-benzo[b][1,4,5]oxathiazepin-2-yl]methyl}-4-methylphenyl)-3-(5-[(isopropylamino)methyl]furan-2-yl)propanoic acid] returned an IC50 in series [1] of 205 nM. Also, in series [2], the “Metabolic stability*” value came out at 90%.

Take `CC[C@@H]1CN(Cc2cc(C(CC(=O)O)c3cc(C)c(C(=O)NC)o3)ccc2C)S(=O)(=O)c2ccccc2O1` (stereo partly drawn) [Compound 31, 3-(3-{[(R)-4-ethyl-1,1-dioxide-3,4-dihydro-2H-benzo[b][1,4,5]oxathiazepin-2-yl]methyl}-4-methylphenyl)-3-[4-methyl-5-(methylcarbamoyl)furan-2-yl]propanoic acid]: the IC50 in series [1] turned out to be 99 nM. In addition, the “Metabolic stability*” value in series [2] was 77%.

On to `CC[C@@H]1CN(Cc2cc(C(CC(=O)O)c3ccc(C(C)=O)n3C)ccc2C)S(=O)(=O)c2ccccc2O1` (stereo partly drawn) [Compound 33, 3-(5-acetyl-1-methyl-1H-pyrrol-2-yl)-3-(3-{[(R)-4-ethyl-1,1-dioxide-3,4-dihydro-2H-benzo[b][1,4,5]oxathiazepin-2-yl]methyl}-4-methylphenyl)propanoic acid], for which, in series [1], the IC50 amounted to 0.3 nM. In addition, in series [2], the “Metabolic stability*” value came to 62%.

Turning to `CC[C@@H]1CN(Cc2cc(C(CC(=O)O)c3ncc(C(C)=O)s3)ccc2C)S(=O)(=O)c2ccccc2O1` (stereo partly drawn) [Compound 40, 3-(5-acetylthiazol-2-yl)-3-(3-{[(R)-4-ethyl-1,1-dioxide-3,4-dihydro-2H-benzo[b][1,4,5]oxathiazepin-2-yl]methyl}-4-methylphenyl)propanoic acid], the IC50 in series [1] amounted to 2.6 nM. The “Metabolic stability*” value in series [2] is 69%.

In series [1], `CC[C@@H]1CN(Cc2cc(C(CC(=O)O)c3ccc(C(=O)NC)o3)ccc2C)S(=O)(=O)c2ccccc2O1` (stereo partly drawn) [Compound 26, 3-(3-{[(R)-4-ethyl-1,1-dioxide-3,4-dihydro-2H-benzo[b][1,4,5]oxathiazepin-2-yl]methyl}-4-methylphenyl)-3-[5-(methylcarbamoyl)furan-2-yl]propanoic acid] gave an IC50 of 17 nM. For the same compound, the “Metabolic stability*” value in series [2] was determined as 93%.

In series [1], `CC[C@@H]1CN(Cc2cc(C(CC(=O)O)c3ccc(C(=O)NC(C)C)o3)ccc2C)S(=O)(=O)c2ccccc2O1` (stereo partly drawn) [Compound 29, 3-(3-{[(R)-4-ethyl-1,1-dioxide-3,4-dihydro-2H-benzo[b][1,4,5]oxathiazepin-2-yl]methyl}-4-methylphenyl)-3-[5-(isopropylcarbamoyl)furan-2-yl]propanoic acid] yielded an IC50 of 17 nM. The “Metabolic stability*” value in series [2] came to 83%.

`CC[C@@H]1CN(Cc2cc(C(CC(=O)O)c3nc(C)c(C(C)=O)s3)ccc2C)S(=O)(=O)c2ccccc2O1` (stereo partly drawn) [Compound 41, 3-(5-acetyl-4-methylthiazol-2-yl)-3-(3-[{(R)-4-ethyl-1,1-dioxide-3,4-dihydro-2H-benzo[b][1,4,5]oxathiazepin-2-yl]methyl}-4-methylphenyl) propanoic acid] displayed an IC50 in series [1] of 3.3 nM. For the same compound, in series [2], the “Metabolic stability*” value worked out at 65%.

The record behind these values is patent US12552757B2, “NRF2-activating compound” (SENJU PHARMACEUTICAL CO., LTD., priority 2019, dated 2026).
